# In PMC12728192, “The dynamic lateral gate of the mitochondrial β-barrel biogenesis machinery is blocked by darobactin A” (Nature Communications, 2025):
# Biological target: T1, T. thermophilus SAM complex (TtSAM; Sam50:Sam35:Sam37) (Thermothelomyces thermophilus, UniProt G2QFF9)
# T1 construct: gene MYCTH_2094326; codon-optimized, co-expressed in S. cerevisiae W303.1B; Strep-Tactin purified monomeric 1:1:1 complex in LMNG/GDN or GDN; 10xHis or TwinStrep tags with linkers and TEV sites in some constructs; with Sorting and assembly machinery subunit Sam35; Sorting and assembly machinery subunit Sam37
# T1 sequence (G2QFF9 entry or part of it): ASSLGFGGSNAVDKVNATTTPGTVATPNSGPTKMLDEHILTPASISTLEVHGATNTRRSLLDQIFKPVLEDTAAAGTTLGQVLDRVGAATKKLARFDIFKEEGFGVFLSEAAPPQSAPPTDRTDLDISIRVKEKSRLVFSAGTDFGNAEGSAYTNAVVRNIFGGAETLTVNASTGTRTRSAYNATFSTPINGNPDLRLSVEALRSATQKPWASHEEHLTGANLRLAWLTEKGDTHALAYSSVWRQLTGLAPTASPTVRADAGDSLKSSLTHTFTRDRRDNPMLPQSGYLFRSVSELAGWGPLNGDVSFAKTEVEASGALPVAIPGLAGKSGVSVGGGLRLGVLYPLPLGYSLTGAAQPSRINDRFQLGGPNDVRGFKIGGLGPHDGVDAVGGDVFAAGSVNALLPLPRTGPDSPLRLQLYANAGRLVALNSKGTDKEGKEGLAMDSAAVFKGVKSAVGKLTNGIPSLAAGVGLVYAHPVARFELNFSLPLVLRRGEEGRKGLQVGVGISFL
# T1 sequence (G2Q6R7 entry or part of it, further chain): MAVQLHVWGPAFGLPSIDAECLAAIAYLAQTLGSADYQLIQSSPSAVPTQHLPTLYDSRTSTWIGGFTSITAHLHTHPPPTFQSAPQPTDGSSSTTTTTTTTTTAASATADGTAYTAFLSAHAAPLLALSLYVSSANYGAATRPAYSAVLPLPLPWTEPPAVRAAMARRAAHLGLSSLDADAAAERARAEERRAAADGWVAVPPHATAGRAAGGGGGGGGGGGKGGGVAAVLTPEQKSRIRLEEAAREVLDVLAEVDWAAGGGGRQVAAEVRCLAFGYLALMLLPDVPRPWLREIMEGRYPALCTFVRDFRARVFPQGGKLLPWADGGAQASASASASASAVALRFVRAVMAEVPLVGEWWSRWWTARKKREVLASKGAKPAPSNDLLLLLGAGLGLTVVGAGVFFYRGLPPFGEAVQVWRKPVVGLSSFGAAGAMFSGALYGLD
# T1 sequence (G2QAT9 entry or part of it, further chain): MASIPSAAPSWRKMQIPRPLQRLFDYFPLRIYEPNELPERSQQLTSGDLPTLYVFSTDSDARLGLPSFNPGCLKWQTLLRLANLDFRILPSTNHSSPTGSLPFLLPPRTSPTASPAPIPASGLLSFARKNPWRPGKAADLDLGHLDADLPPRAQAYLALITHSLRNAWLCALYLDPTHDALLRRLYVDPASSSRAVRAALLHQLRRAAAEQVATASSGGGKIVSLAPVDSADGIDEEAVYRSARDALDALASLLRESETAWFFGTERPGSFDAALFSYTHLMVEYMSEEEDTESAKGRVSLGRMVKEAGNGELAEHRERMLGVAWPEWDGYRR
# Assay: cryo-EM structure; LC/MS of purified complex
# Type: binding
# Conditions: co-purified from yeast membranes; modelled on back side of Sam50 barrel and beneath Sam37 cytosolic domain
smiles,measurement,value
CC(C)[C@@H](C)/C=C/[C@@H](C)[C@H]1CC[C@H]2C3=CC=C4C[C@@H](O)CC[C@]4(C)[C@H]3CC[C@]12C [ergosterol],cryo-EM structure; LC/MS of purified complex,We have modeled these lipids as ergosterol molecules
